Active and inactive are the calls of the source. The calls are words filed in the database; no cut-off is given here.
What was measured:
Candida albicans [1] = assay: Chemo-sensitization of fluconazole antifungal activity against FLC-resistant Candida albicans assessed as inhibition of microbial growth at 200 ug/mL in presence of fluconazole incubated for 24 hrs by microbroth dilution assay relative to untreated control; format: functional, organism-based
Candida albicans [2] = assay: Chemo-sensitization of fluconazole antifungal activity against FLC-resistant Candida albicans assessed as inhibition of microbial growth in presence of fluconazole at 1:1 ratio of compound to fluconazole incubated for 24 hrs by microbroth dilution assay relative to untreated control; format: functional
Candida albicans [3] = assay: Antifungal activity against normal Candida albicans assessed as inhibition of microbial growth at 200 ug/mL incubated for 24 hrs by microbroth dilution assay relative to untreated control; format: functional; conditions: read-out: GI
Candida albicans [4] = assay: Antifungal activity against FLC-resistant Candida albicans assessed as inhibition of microbial growth incubated for 24 hrs by microbroth dilution assay relative to untreated control; format: functional
Candida albicans [5] = assay: Antifungal activity against FLC-resistant Candida albicans assessed as inhibition of microbial growth at 200 ug/mL incubated for 24 hrs by microbroth dilution assay relative to untreated control; format: functional; conditions: read-out: GI

SMILES	growth inhibition (GI) (Candida albicans [1])	MIC50 (Candida albicans [2]) [µg/mL]	inhibition of growth at 200 µg/mL (Candida albicans [3]) [%]	MIC50 (Candida albicans [4]) [µg/mL]	inhibition of growth at 200 µg/mL (Candida albicans [5]) [%]
C/C(=C\C(=O)C[C@H](C)C(=O)O)[C@H]1C[C@@H](O)[C@@]2(C)C3=C(C(=O)[C@H](O)[C@]12C)[C@@]1(C)CCC(=O)C(C)(C)[C@@H]1CC3=O	Active	4.4	< 50		
C/C(=C\C(=O)C[C@H](C)C(=O)O)[C@H]1C[C@H](O)[C@@]2(C)C3=C(C=C[C@]12C)[C@@]1(C)CCC(=O)C(C)(C)[C@@H]1CC3=O	Active	5.1	< 50		
C/C(=C\[C@@H]1C[C@H](C)C(=O)O1)[C@H]1C[C@H](O)[C@]2(C)[C@]1(C)C(=O)C=C1[C@@]3(C)CCC(=O)C(C)(C)[C@@H]3C[C@H]3O[C@@]132	Active	4.7	< 50		
C[C@@H](CC(=O)C[C@](C)(O)C1=C[C@@H](O)[C@]2(C)[C@]1(C)C(=O)C=C1[C@]23O[C@H]3C[C@H]2C(C)(C)[C@@H](O)CC[C@]12C)C(=O)O	Active	8.8	< 50		
C[C@@H](CC(=O)C[C@](C)(O)C1=CC(=O)[C@]2(C)[C@]1(C)C(=O)C=C1[C@]23O[C@H]3C[C@H]2C(C)(C)C(=O)CC[C@]12C)C(=O)O	Active	3.8	< 50		
C/C(=C\[C@H]1C[C@H](C)C(=O)O1)[C@H]1C[C@@H](O)[C@]2(C)[C@]1(C)C(=O)C=C1[C@@]3(C)CCC(=O)C(C)(C)[C@@H]3C[C@H]3O[C@@]132	Active	5	< 50		
OC(Cn1cncn1)(Cn1cncn1)c1ccc(F)cc1F [FLUCONAZOLE]				6.3	
C/C(=C\[C@@H]1C[C@H](C)C(=O)O1)[C@H]1C[C@@H](O)[C@]2(C)[C@]1(C)C(=O)C=C1[C@@]3(C)CCC(=O)C(C)(C)[C@@H]3C[C@H]3O[C@@]132	Active	37.8	< 50		
C=C(C)[C@@H]1C[C@H]2O[C@@]23C(=CC(=O)[C@]2(C)[C@@H](/C(C)=C/[C@H]4C[C@H](C)C(=O)O4)C[C@@H](O)[C@]23C)[C@@]1(C)CCC(=O)O	Active	25.8	< 50		
C/C(=C\C(=O)C[C@H](C)C(=O)O)[C@H]1C[C@H](O)[C@@]2(C)[C@]34O[C@H]3C[C@H]3C(C)(C)C(=O)CC[C@]3(C)C4=CC(=O)[C@]12C	Active		< 50		
C/C(=C\C(=O)C[C@H](C)C(=O)O)[C@H]1C[C@@H](O)[C@@]2(C)C3=C([C@@H](O)[C@H](O)[C@]12C)[C@@]1(C)CCC(=O)C(C)(C)[C@@H]1CC3=O	Active		< 50		
C[C@@H](CC(=O)C[C@](C)(O)C1=C[C@H](O)[C@]2(C)[C@]1(C)C(=O)C=C1[C@]23O[C@H]3C[C@H]2C(C)(C)C(=O)CC[C@]12C)C(=O)O	Active	37.7	< 50		
C[C@H]1C[C@@]2(C[C@](C)(O)C3=C[C@@H](O)[C@@]4(C)C5=C(C(=O)[C@H](O2)[C@]34C)[C@@]2(C)CCC(=O)C(C)(C)[C@@H]2CC5=O)OC1=O	Active	78	< 50		
C/C(=C\C(=O)C[C@H](C)C(=O)O)[C@H]1C[C@@H](O)[C@@]2(C)C3=C(C=C[C@]12C)[C@@]1(C)CCC(=O)C(C)(C)[C@@H]1CC3=O	Active		< 50		
C=C(C)[C@@H]1C[C@H]2O[C@@]23C(=CC(=O)[C@]2(C)[C@@H](/C(C)=C/[C@H]4C[C@H](C)C(=O)O4)C[C@H](O)[C@]23C)[C@@]1(C)CCC(=O)O	Active	29.4	< 50		
C/C(=C\C(=O)C[C@H](C)C(=O)O)[C@H]1C[C@H](O)[C@@]2(C)C3=CC[C@H]4C(C)(C)C(=O)CC[C@]4(C)C3=CC(=O)[C@]12C	Active	70	< 50		
C[C@@H](CC(=O)C[C@](C)(O)C1=C[C@@H](O)[C@]2(C)[C@]1(C)C(=O)C=C1[C@]23O[C@H]3C[C@H]2C(C)(C)C(=O)CC[C@]12C)C(=O)O	Active	29	< 50		
C/C(=C\[C@H]1C[C@H](C)C(=O)O1)[C@H]1C[C@H](O)[C@]2(C)[C@]1(C)C(=O)C=C1[C@@]3(C)CCC(=O)C(C)(C)[C@@H]3C[C@H]3O[C@@]132	Active	47.9	< 50		
C=C(C)[C@@H]1C[C@H]2O[C@@]23C(=CC(=O)[C@]2(C)[C@@H](/C(C)=C/[C@H]4C[C@H](C)C(=O)O4)C[C@H](O)[C@]23C)[C@@]1(C)CCC(=O)OC	Active	129	< 50		
C/C(=C\C(=O)C[C@H](C)C(=O)O)[C@H]1C[C@@H](O)[C@@]2(C)C3=C(C[C@H](O)[C@]12C)[C@@]1(C)CCC(=O)C(C)(C)[C@@H]1CC3=O	Active		< 50		
C/C(=C\C(=O)C[C@H](C)C(=O)O)[C@H]1C[C@H](O)[C@@]2(C)[C@]34O[C@@H]3C[C@H]3C(C)(C)C(=O)CC[C@]3(C)C4=CC(=O)[C@]12C	Active	7.3	55		< 50
C[C@@H](CC(=O)C[C@](C)(O)C1=CC(=O)[C@]2(C)[C@]1(C)C(=O)C=C1[C@]23O[C@H]3C[C@H]2C(C)(C)[C@@H](O)CC[C@]12C)C(=O)O	Active	28.3	< 50		

Source: ChEMBL document CHEMBL4387784, “Triterpenoids from Ganoderma gibbosum: A Class of Sensitizers of FLC-Resistant Candida albicans to Fluconazole” (2019)
